{"source": "patent US8212058B2", "about": "“Fluorescent photoprobe for the imaging of endothelin receptors” (Universitatskilinikum Munster, priority 2005, dated 2012)", "key": {"[1]": {"target": "T1, ETA receptor on HT-1080 human fibrosarcoma cells (Homo sapiens, UniProt P25101)", "T1 construct": "The highest amount of protein is found in human fibrosarcoma cells HT-1080; host or cells: HT-1080", "T1 sequence (P25101 21-427)": "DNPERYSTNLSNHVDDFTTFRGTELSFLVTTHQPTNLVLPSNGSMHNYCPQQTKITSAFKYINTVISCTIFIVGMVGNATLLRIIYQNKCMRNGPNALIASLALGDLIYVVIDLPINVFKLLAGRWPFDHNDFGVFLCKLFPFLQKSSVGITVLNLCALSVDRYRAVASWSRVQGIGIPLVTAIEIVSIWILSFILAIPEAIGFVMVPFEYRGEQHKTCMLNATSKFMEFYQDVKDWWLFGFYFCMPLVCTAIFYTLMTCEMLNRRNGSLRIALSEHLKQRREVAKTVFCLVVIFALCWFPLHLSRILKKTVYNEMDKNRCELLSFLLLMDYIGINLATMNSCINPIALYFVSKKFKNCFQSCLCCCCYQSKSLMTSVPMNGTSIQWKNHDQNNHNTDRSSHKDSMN", "assay": "In vitro cell binding assay by fluorescence microscopy, HT-1080 cells", "assay_type": "cell-based", "details": "for cellular fluorescence signal (fluorescence microscopy): HT-1080 cells, 45 min at 4° C.", "procedure": "Cell lines and reagents. Human breast adenocarcinoma cell line MCF-7 (ATCC-No. HTB-22), MDA-MB-435 human breast carcinoma cells (ATCC-No. HTB-123) and HT-1080 human fibrosarcoma cells (ATCC-No. CCL-121) were cultured in RPMI 1640 (Invitrogen Corporation, San Diego, USA) supplemented with 10% fetal calf serum, penicillin and streptomycin. Cells were grown routinely in a monolayer culture at 37° C. in a 5% CO2 humidified air atmosphere.\n(§1) Cell binding assays. Cells (HT-1080 fibrosarcomas, MDA-MB435 ductal carcinomas, MCF-7 adenocarcinomas) were seeded in 4-well plates (Nunc GmbH & Co. KG, Wiesbaden, Germany) and incubated in culture medium (0.5 ml/well) overnight. For binding studies cells were washed twice with PBS and resuspended in 150 μl binding buffer (20 mM HEPES in PBS with Ca^2+/Mg^2+, 0.2% BSA, 0.1% Glucose, pH 7.4). […] After an incubation period of 45 min at 4° C. cells were washed twice with PBS and were resuspended in binding buffer. […] Cells could be directly visualised by fluorescence microscopy (40× objective, Nikon TE 2000-S, Nikon-Düsseldorf, Germany). The microscope was equipped with a mercury vapour lamp (100 W), 620/775 nm and 545/675 nm (excitation/emission) filters (AHF Analysentechnik, Tbingen, Germany), a Nikon DXM1200F camera and ACT1/DXM1200F software (Nikon, Japan).\n(§2) In vitro cell binding assays. […] Binding of the labelled antagonist could be directly analysed by fluorescence microscopy."}, "[2]": {"test_system": "ETA-negative MDA-MB-435 human breast carcinoma cells", "assay": "In vitro cell binding assay by fluorescence microscopy, MDA-MB-435 cells", "assay_type": "cell-based", "details": "45 min at 4° C.", "source_text": "In vitro cell binding assays."}, "[3]": {"target": "T2, ETAR in MDA-MB-435 tumor xenografts (Mus musculus, UniProt Q61614)", "T2 construct": "from tissue; host or cells: MDA-MB-435 tumour xenografts in mice (host-derived cells, e.g. endothelial)", "T2 sequence (Q61614 21-427)": "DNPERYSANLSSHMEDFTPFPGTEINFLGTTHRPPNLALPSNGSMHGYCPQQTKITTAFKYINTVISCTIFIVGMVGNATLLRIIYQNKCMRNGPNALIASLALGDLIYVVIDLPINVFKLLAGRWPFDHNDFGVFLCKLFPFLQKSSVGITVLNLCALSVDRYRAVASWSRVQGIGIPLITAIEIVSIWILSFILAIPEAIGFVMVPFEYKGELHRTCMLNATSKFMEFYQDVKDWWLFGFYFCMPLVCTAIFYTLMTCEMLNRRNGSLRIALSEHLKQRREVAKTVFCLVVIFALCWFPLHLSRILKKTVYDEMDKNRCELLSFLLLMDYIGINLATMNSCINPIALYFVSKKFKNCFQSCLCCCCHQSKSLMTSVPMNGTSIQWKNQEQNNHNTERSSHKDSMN", "assay": "In vivo FMT/FRI imaging of MDA-MB-435 murine xenograft models", "parameters": "species or system mice", "source_text": "FIG. 7: 3D-FMTexamination of MDA-MB-435 murine xenograft models."}, "[4]": {"test_system": "ETAR in MCF-7 tumor xenografts", "assay": "In vivo FMT/FRI imaging of MCF-7 tumor xenografts", "parameters": "species or system mice"}, "[5]": {"test_system": "ETA receptor on MCF-7 human breast adenocarcinoma cells", "assay": "In vitro cell binding assay by fluorescence microscopy, MCF-7 cells", "details": "for cellular fluorescence signal (fluorescence microscopy): 45 min at 4° C., nmol amounts per well", "procedure": "Human breast cancer cell line MCF-7 (ATCC-No. HTB-22) was cultured in RPMI 1640 (Invitrogen Corporation, San Diego, USA) supplemented with 10% fetal calf serum, penicillin and streptomycin. Cells were grown routinely in a monolayer culture at 37° C. in a 5% CO2 humidified air atmosphere. Antibodies were murine IgGs and specific for the endothelin A receptor.\nCells were seeded in 4-well plates (Nunc, Wiesbaden) and incubated in culture medium (0.5 ml/well) overnight. For binding studies cells were washed twice with PBS and resuspended in 150 μl binding-buffer (20 mM HEPES in PBS with Ca^2+/Mg^2+, 0.2% BSA, 0.1% Glucose, pH 7.4). […] After an incubation period of 45 min at 4° C. cells were washed twice with PBS and were resuspended in binding buffer. For competition binding studies free ETAR antagonist (final amount 50 nmol) or ETAR antibodies (1.3 μg) were added to each well for 45 min at 4° C. Cells could be directly visualized by fluorescence microscopy (40× and 60× objective, Nikon TE 2000-S, Nikon-Düsseldorf). The microscope was equipped with a mercury vapour lamp (100 W), 620/775 nm and 545/675 nm (excitation/emission) filters (AHF Analysentechnik, Tübingen), a Nikon DXM1200F camera and ACT1/DXM1200F software (Nikon, Japan).\nBinding of the labelled antagonist could be directly analyzed by fluorescence microscopy.\nas §1, §2"}, "myocardial ETAR": {"target": "T3, myocardial ETAR (Mus musculus, UniProt Q61614)", "T3 construct": "from tissue; host or cells: mouse myocardium, in vivo", "T3 sequence (Q61614 21-427)": "T2 sequence (Q61614 21-427)", "assay": "In vivo FRI imaging of myocardial ETAR expression", "details": "mice, pre-dosing with PD 156707", "experimental": "FIG. 6: In vivo application of the targeted fluorophore for imaging of myocardial ETAR—expression. Mice were injected with the targeted fluorophore with (middle) and without (right) pre-dosing with PD 156707. The left speciment is a saline injected control."}, "endothelin receptors [6]": {"target": "endothelin receptors", "details": "literature value printed for comparison (lit.; ref. 37); cited from earlier work"}, "endothelin receptors [7]": {"target": "endothelin receptors", "assay": "Competition binding studies with [125I]ET-1 on mouse ventricular membrane preparations", "details": "read-out: dissociation constant KD; Scatchard transformation of saturation data, mouse ventricular membranes", "procedure": "Microsomes were prepared by homogenizing ventricles from DBA mice at 4° C. for 90 seconds in 1 ml of buffer A (10 mM EDTA, 10 mM HEPES, 0.1 mM benzamidine, pH 7.4), using a Polytron PT 3000 (Kinematica, Luceme, Switzerland). Homogenates were centrifuged at 45,000× gmax for 15 min at 4° C. The pellets were resuspended in 1 ml of buffer B (1 mM EDTA, 10 mM HEPES, 0.1 mM benzamidine, pH 7.4) and recentrifuged at 45,000× gmax for 15 min at 4° C. The pellets were resuspended in 1 ml of buffer B and centrifuged at 10,000× gmax for 10 min at 4° C. The supernatants were recentrifuged at 45,000×gmax for 15 min at 4° C. […]\nFor competition binding studies, the prepared membranes were resuspended in buffer D (10 mM Tris.HCl, 154 mM NaCl, 0.1 mM ascorbic acid, pH 7.4) at 0° C. […] The membrane bound radioactivity was determined in a γ-scintillation counter. Competition binding curves were analyzed by nonlinear regression analysis using the XMGRACE programme (Linux software).\nDifferent concentrations of the prepared compound (1.0 pM-100 μM) were incubated with 40 pM [^125I]ET-1 and a fixed amount of mouse ventricular membrane preparation (10 μg) at 37° C. for 4 h. The membrane bound radioactivity was evaluated using a γ-scintillation counter and standardized on percentage of [^125I]ET-1. […]"}, "[8]": {"details": "MDA-MB-435, block (100 nmol PD 156707 10 minutes before), 1 h"}, "[9]": {"details": "MDA-MB-435, block (100 nmol PD 156707 10 minutes before), 3 h"}, "[10]": {"details": "MDA-MB-435, block (100 nmol PD 156707 10 minutes before), 5 h"}, "[11]": {"details": "MDA-MB-435, block (100 nmol PD 156707 10 minutes before), 24 h"}, "[12]": {"details": "MDA-MB-435, nativ, 24 h, 2 nmol"}}, "note": "“Also recorded” adds a separate entry of the source."}
{"molecule": "CC[N+]1=C(/C=C/C=C/C=C2/N(CCCCCC(=O)NCCOCCOCCOCCOc3cc(CC4=C(c5ccc6c(c5)OCO6)C(=O)OC4(O)c4ccc(OC)cc4)cc(OC)c3OC)c3ccc4c(S(=O)(=O)O)cc(S(=O)(=O)O)cc4c3C2(C)C)C(C)(C)c2c1ccc1c(S(=O)(=O)O)cc(S(=O)(=O)O)cc21", "note": "(stereo not drawn) [ETAR-Cy 5.5]", "values": [{"measurement": "cellular fluorescence signal (fluorescence microscopy)", "setting": "[1]; listed as 17", "value": "higher fluorescence signal than human breast cancer cell line MCF-7; also recorded: highest cellular fluorescence"}, {"measurement": "cellular fluorescence signal (fluorescence microscopy)", "setting": "[2]", "value": "little to no cellular fluorescence"}, {"measurement": "cellular fluorescence signal (fluorescence microscopy)", "setting": "[2]; listed as 17", "value": "no accumulation of the ligand; also recorded: do not bind the tracer"}, {"measurement": "fluorescence signal of tumor xenografts by FRI and FMT", "setting": "[3]; MDA-MB 435 xenografts, 2 nmol i.v.", "value": "high fluorescence signal yields"}, {"measurement": "mean (FMT-data)", "setting": "[3]; [8]", "value": 253.57}, {"measurement": "pmol (FMT-data)", "setting": "[3]; [8]", "value": 22.14, "unit": "pmol"}, {"measurement": "mean (FMT-data)", "setting": "[3]; [9]", "value": 323.25}, {"measurement": "pmol (FMT-data)", "setting": "[3]; [9]", "value": 17.25, "unit": "pmol"}, {"measurement": "mean (FMT-data)", "setting": "[3]; [10]", "value": 343.78}, {"measurement": "pmol (FMT-data)", "setting": "[3]; [10]", "value": 19.67, "unit": "pmol"}, {"measurement": "mean (FMT-data)", "setting": "[3]; [11]", "value": 273.80}, {"measurement": "pmol (FMT-data)", "setting": "[3]; [11]", "value": 34.80, "unit": "pmol"}, {"measurement": "mean (FMT-data)", "setting": "[3]; MDA-MB-435, nativ, 1 h, 2 nmol", "value": 356.89}, {"measurement": "pmol (FMT-data)", "setting": "[3]; MDA-MB-435, nativ, 1 h, 2 nmol", "value": 40.56, "unit": "pmol"}, {"measurement": "mean (FMT-data)", "setting": "[3]; MDA-MB-435, nativ, 3 h, 2 nmol", "value": 326.33}, {"measurement": "pmol (FMT-data)", "setting": "[3]; MDA-MB-435, nativ, 3 h, 2 nmol", "value": 27.67, "unit": "pmol"}, {"measurement": "mean (FMT-data)", "setting": "[3]; MDA-MB-435, nativ, 5 h, 2 nmol", "value": 418.17}, {"measurement": "pmol (FMT-data)", "setting": "[3]; MDA-MB-435, nativ, 5 h, 2 nmol", "value": 55.50, "unit": "pmol"}, {"measurement": "mean (FMT-data)", "setting": "[3]; [12]", "value": 444.38}, {"measurement": "pmol (FMT-data)", "setting": "[3]; [12]", "value": 63.57, "unit": "pmol"}, {"measurement": "mean (FMT-data)", "setting": "[4]; MCF-7, block, 1 h", "value": 196.50}, {"measurement": "pmol (FMT-data)", "setting": "[4]; MCF-7, block, 1 h", "value": 224.00, "unit": "pmol"}, {"measurement": "mean (FMT-data)", "setting": "[4]; MCF-7, block, 3 h", "value": 66.50}, {"measurement": "pmol (FMT-data)", "setting": "[4]; MCF-7, block, 3 h", "value": 274.50, "unit": "pmol"}, {"measurement": "mean (FMT-data)", "setting": "[4]; MCF-7, block, 5 h", "value": 100.67}, {"measurement": "pmol (FMT-data)", "setting": "[4]; MCF-7, block, 5 h", "value": 201.67, "unit": "pmol"}, {"measurement": "mean (FMT-data)", "setting": "[4]; MCF-7, block, 24 h", "value": 125.50}, {"measurement": "pmol (FMT-data)", "setting": "[4]; MCF-7, block, 24 h", "value": 9.00, "unit": "pmol"}, {"measurement": "mean (FMT-data)", "setting": "[4]; MCF-7, nativ, 1 h", "value": 148.00}, {"measurement": "pmol (FMT-data)", "setting": "[4]; MCF-7, nativ, 1 h", "value": 599.00, "unit": "pmol"}, {"measurement": "mean (FMT-data)", "setting": "[4]; MCF-7, nativ, 3 h", "value": 79.00}, {"measurement": "pmol (FMT-data)", "setting": "[4]; MCF-7, nativ, 3 h", "value": 339.00, "unit": "pmol"}, {"measurement": "mean (FMT-data)", "setting": "[4]; MCF-7, nativ, 5 h", "value": 115.50}, {"measurement": "pmol (FMT-data)", "setting": "[4]; MCF-7, nativ, 5 h", "value": 473.00, "unit": "pmol"}, {"measurement": "mean (FMT-data)", "setting": "[4]; MCF-7, nativ, 24 h", "value": 207.67}, {"measurement": "pmol (FMT-data)", "setting": "[4]; MCF-7, nativ, 24 h", "value": 33.00, "unit": "pmol"}, {"measurement": "fluorescence signal of tumor xenografts by FRI and FMT", "setting": "[4]; MCF-7 xenografts, 2 nmol i.v.", "value": "high fluorescence signal yields"}, {"measurement": "cellular fluorescence signal (fluorescence microscopy)", "setting": "[5]", "value": "high amounts of cellular fluorescence"}, {"measurement": "cellular fluorescence signal (fluorescence microscopy)", "setting": "[5]; listed as 9", "value": "specific visualization of the ETA receptor"}, {"measurement": "cellular fluorescence signal (fluorescence microscopy)", "setting": "[5]; listed as 17", "value": "allowed for visualisation of the ETA receptor; also recorded: only moderate cellular fluorescence"}, {"measurement": "cellular fluorescence signal (fluorescence microscopy)", "setting": "[5]; listed as targeted fluorochrome", "value": "strong fluorescence signal"}]}
{"molecule": "COc1ccc(C2(O)OC(=O)C(c3ccc4c(c3)OCO4)=C2Cc2cc(OC)c(OC)c(OC)c2)cc1", "note": "(stereo not drawn) [PD 156707, 3-benzo[1,3]dioxol-5-yl-5-hydroxy-5-(4-methoxyphenyl)-4-(3,4,5-trimethoxybenzyl)-5H-furan-2-one, reference compound]", "values": [{"measurement": "blocking of the binding/signal of conjugate 17", "setting": "[1]; HT-1080 cells (FIG. 4B), antibody 1.3 μg or tenfold excess PD 156707", "value": "Blocking of the signal was possible"}, {"measurement": "tumor fluorescence of ETAR-Cy 5.5 after predosing", "setting": "[3]; predosing with unmodified ETAR antagonist", "value": "significant decrease of tumor fluorescence"}, {"measurement": "myocardial signal of the fluorophore after pre-dosing", "setting": "myocardial ETAR", "value": "significantly reduced"}, {"measurement": "IC50", "setting": "endothelin receptors [6]", "value": 0.3, "unit": "nM"}, {"measurement": "blocking of the binding/signal of the Cy 5.5 conjugate", "setting": "[5]; PD 156707 50 nmol (tenfold) or ETAR antibodies 1.3 μg", "value": "could be blocked; also recorded: Blocking of the signal was possible"}, {"measurement": "cell behaviour at higher concentrations", "setting": "[5]; conjugate and unlabelled antagonist up to 100 nmol", "value": "cells detached from the bottom of the flask"}]}
{"molecule": "Cy 5.5 [reference compound]", "values": [{"measurement": "cellular fluorescence signal (fluorescence microscopy)", "setting": "[1]", "value": "Negligible signals"}, {"measurement": "cellular fluorescence signal (fluorescence microscopy)", "setting": "[2]", "value": "Negligible signals"}, {"measurement": "cellular fluorescence signal (fluorescence microscopy)", "setting": "[5]", "value": "Negligible signals"}]}
{"molecule": "[^125I]ET-1: radioiodinated endothelin-1 radioligand (PerkinElmer)", "values": [{"measurement": "Kd", "setting": "endothelin receptors [7]", "value": "0.208 ± 0.002", "unit": "nM"}]}
